From patent US9994830B2, “Methods for modulating cyclic nucleotide-mediated signaling in cardiac myocytes and compositions” (The United States of America as Represented by the …, priority 2014, dated 2018)

Assays:
PLB = test: cAMP-dependent phosphorylation of endogenous PLB in human myocardial membranes; type: biochemical; details: 0.1 μM cAMP; cilostamide 1 μM or rolipram 10 μM; human left ventricular microsomes
Method: (§1) FIG. 7 a-f. cAMP, PKA, and PDE3-inhibition increase SERCA2 activity and Ca^2+ uptake. A. After incubation of SR fractions (20 μg) in the absence or presence of the indicated concentrations of ATP and/or cAMP, without or with cilostamide or rolipram, endogenous PLB, phosphorylated PLB, and ρ-actin were detected after SDS-PAGE and immunoblotting. Data are representative of three experiments. In these and other Western blots, PLB is predominantly monomeric, most likely due to the heating of samples, prior to electrophoresis, under reducing conditions (buffer containing β-mercatoethanol, DTT, and SDS). B. Bar graph summarizing pSer16PLB/PLB total ratios. *P<0.01 vs. control (n=3 independent experiments). C. PDE activity in human cardiac SR fractions, expressed as specific activity (pmol cAMP hydrolyzed/min/mg). Results are presented as mean+/−SEM (n=3 preparations). PDE3 activity was determined as the cilostamide-sensitive fraction, and PDE4 activity as the rolipram-sensitive fraction. […] D. After incubation of SR fractions without or with the indicated concentrations of cAMP (0-10 μM), ^45Ca^2+ uptake was measured in the presence of 0.5 μM free Ca^2+. Results are presented as % increase due to cAMP, with basal Ca^2+ uptake (9.4+/−0.8 nmol/mg/min, n=3) taken as 100%. […]

[1] = tested on: neonatal rat ventricular myocytes; test: Hypertrophy of neonatal rat ventricular myocytes (PDE3 inhibitor treatment or transfection with dominant-negative constructs, with or without norepinephrine); type: cell-based; details: neonatal rat ventricular myocytes; treatment or transfection alone
Excerpt: FIG. 5. Anti-hypertrophic actions of PDE3A1-selective targeting in neonatal rat ventricular myocytes.
In contrast, expression of the PDE3A1 dominant negative has no pro-hypertrophic effect, and actually blocks the hypertrophic responses to norepinephrine.
In neonatal rat ventricular myocytes, conventional PDE3 inhibition promotes cellular hypertrophy, which may be associated with adverse consequences in heart failure. We questioned what effect PDE3A1-selective inhibition would have. […] The F1004A substitution is a change in the amino acid sequence of PDE3A1 at amino acid position 1004 from a phenylalanine to an alanine. We transfected neonatal rat ventricular myocytes with this dominant-negative construct to competitively block the protein-protein interactions that localize PDE3A1 to specific intracellular microdomains. […] To our knowledge, this is the first direct evidence that conventional PDE3 inhibition and isoform-selective targeting have different effects in cardiac myocytes, and that some of the adverse consequences of nonselective PDE3 inhibition may be averted by isoform-selective targeting involving protein-protein interactions.

SR vesicles = test: 45Ca2+ uptake in SR vesicles from human myocardium; type: biochemical; details: cAMP 3 μM, cilostamide 1 μM; SR fractions
Method: as §1, with “B. Bar graph summarizing pSer16PLB/PLB total ratios. *P<0.01 vs. control (n=3 independent experiments). C.” left out, “Results are presented as mean+/−SEM (n=3 preparations).” left out, “Ca^2+.” for “Ca^2+. Results are presented as % increase due to cAMP, with basal Ca^2+ uptake (9.4+/−0.8 nmol/mg/min, n=3) taken as 100%.”
Oxalate-dependent Ca^2+ uptake was quantified as described previously (17). […] After washing four times with 4 ml buffer containing 140 mM KCl, 10 mM NaCl, 2 mM MgCl2, 1 mM CaCl2 and 50 mM imidazole-HCl, (pH 7.0), radioactivity retained on the filters was quantified by liquid scintillation counting. Free [Ca^2+] was calculated using a program obtained at http://www.stanford.edu/˜cpatton/webmaxc/webmaxcS.htm.

Structure (SMILES): CN(C(=O)CCCOc1ccc2[nH]c(=O)ccc2c1)C1CCCCC1 [cilostamide]
- phosphorylation of PLB at S16 by endogenous PKA (PLB): stimulated
- cellular hypertrophy [1]: promote myocyte hypertrophy
- effect on cAMP-increased ATP-dependent, oxalate-supported Ca2+ uptake (SR vesicles): potentiated

Structure (SMILES): COc1ccc(C2CNC(=O)C2)cc1OC1CCCC1 (stereo not shown) [rolipram]
- phosphorylation of PLB at S16 by endogenous PKA (PLB): no effect
